From patent US12209092B2, “Inhibitors of GLI1 as therapeutic agents” (NEW YORK UNIVERSITY, priority 2018, dated 2025)
Where two headings read alike, the source gives them in different places.

Test system: Gli1-mediated transcription
Assay: Gli1-mediated transcriptional luciferase reporter assay
Type: cell-based
Description: Gli1-mediated transcriptional luciferase reporter assay was performed using Shh-LIGHT2 cells in order to evaluate the effects on activation and inhibition of Gli1-mediated transcription by the compounds of the disclosure. Brief assay procedure is provided below. […] Shh-LIGHT2 cells were harvested from about 80% confluent 10-cm dish using 0.25% Trypsin-EDTA solution. Medium was removed, and cells were washed with 5 mL DPBS and aspirated. Then, 1 mL 0.25% Trypsin-EDTA solution was added to a 10-cm dish. The dish was placed in the incubator for 1-3 minutes, or until cells have detached. 3 mL of cell growth medium (DMEM, 10% FBS, 1% PenStrep, 1% sodium pyruvate, and 1% GlutaMax) was added to the 10-cm dish, and the contents were transferred to a conical tube. […] The cell assay plate was removed from incubator after cells reached confluency. The culture medium was then manually removed from the cell plates, and the plates were centrifuged at 200 rpm for 30 seconds. […] After 30 min incubation of antagonist, cells were stimulated with agonist (purmorphamine, 5 μL, 1.5 μM final), then incubate for 24 h at 37° C./5% CO2. […] Luciferase assay: After incubation, the cell assay plate was allowed to acclimate to room temperature. Then, 20 μL of Duo-Glo® Luciferase Reagent (Promega) was added to each well of cell assay plate. The plate was briefly spun down, mixed, and incubated for 30 minutes at room temperature. The cell plate was read using luminometer for firefly luminescence activity. Then, 20 μL of Duo-Glo® Step&Glo® Reagent (Promega) was added to each well of cell assay plate. The plate was briefly spun down, mixed, and incubated for 30 minutes at room temperature. The cell plate was read using luminometer for Renilla luminescence activity. Ratio of firefly: Renilla luminescence was calculated for each well. The compound well ratio was normalized to the ratio from a control well.

[1] = Shh-LIGHT2 cells, antagonist mode, purmorphamine 1.5 μM stimulation, 24 h, firefly luminescence, read-out: Gli1 IC50 firefly
[2] = Shh-LIGHT2 cells, antagonist mode, purmorphamine 1.5 μM stimulation, 24 h, ratio of firefly:Renilla luminescence, read-out: Gli1 IC50 firefly:Renilla ratio

Structure (SMILES) | IC50 [1] | IC50 [2] | IC50 (Shh Light2, 24 h, read-out: Gli1 IC50 firefly) | IC50 (Shh Light2, 24 h, read-out: Gli1 IC50 firefly:Renilla ratio)
Clc1ccccc1-c1nc2c([nH]1)CN(C1CCc3cccc(Br)c3C1)CC2 (stereo not drawn) [Example 26, 5-(8-bromo-1,2,3,4-tetrahydronaphthalen-2-yl)-2-(2-chlorophenyl)-4,5,6,7-tetrahydro-3H-imidazo[4,5-c]pyridine] | < 0.1 µM | 0.1 to 0.49 µM |  | 
Cn1c(-c2ccccc2Cl)nc2c1CN(C1CCc3cccc(Cl)c3C1)CC2 (stereo not drawn) [Example 18, 5-(8-chloro-1,2,3,4-tetrahydronaphthalen-2-yl)-2-(2-chlorophenyl)-3-methyl-4,5,6,7-tetrahydro-3H-imidazo[4,5-c]pyridine] | 1 to 50 µM | 1 to 50 µM |  | 
CN1C2=C(CCN([C@@H]3CCc4cccc(Cl)c4C3)C2)NC1c1ccccc1Cl (stereo partly drawn) [Example 18-R, 5-((R)-8-chloro-1,2,3,4-tetrahydronaphthalen-2-yl)-2-(2-chlorophenyl)-3-methyl-2,3,4,5,6,7-hexahydro-1H-imidazo[4,5-c]pyridine] | < 0.1 µM | < 0.1 µM |  | 
COc1cccc(-c2nc3c([nH]2)CN(C2CCc4ccc(OC)cc4C2)CC3)c1 (stereo not drawn) [Example 4, 5-(7-methoxy-1,2,3,4-tetrahydronaphthalen-2-yl)-2-(3-methoxyphenyl)-4,5,6,7-tetrahydro-3H-imidazo [4,5-c]pyridine] | 0.5 to 0.99 µM | 1 to 50 µM |  | 
Clc1ccccc1-c1nc2c([nH]1)CN(C1Cc3ccccc3C1)CC2 [Example 2, 2-(2-chlorophenyl)-5-(2,3-dihydro-1H-inden-2-yl)-4,5,6,7-tetrahydro-3H-imidazo[4,5-c]pyridine] |  |  | 1 to 50 µM | 1 to 50 µM
COc1ccc(Cl)c(-c2nc3c([nH]2)CN(C2CCc4ccc(Cl)cc4C2)CC3)c1 (stereo not drawn) [Example 24, 5-(7-chloro-1,2,3,4-tetrahydronaphthalen-2-yl)-2-(2-chloro-5-methoxyphenyl)-4,5,6,7-tetrahydro-3H-imidazo[4,5-c]pyridine] | 0.1 to 0.49 µM | < 0.1 µM |  | 
COc1cccc2c1CC(N1CCc3nc(-c4ccccc4Cl)[nH]c3C1)CC2 (stereo not drawn) [Example 16, 2-(2-chlorophenyl)-5-(8-methoxy-1,2,3,4-tetrahydronaphthalen-2-yl)-4,5,6,7-tetrahydro-3H-imidazo[4,5-c]pyridine] | < 0.1 µM | 0.1 to 0.49 µM |  | 
COc1ccc2c(c1)CCC(N1CCc3nc(-c4ccccc4F)[nH]c3C1)C2 (stereo not drawn) [Example 7, 2-(2-fluorophenyl)-5-(6-methoxy-1,2,3,4-tetrahydronaphthalen-2-yl)-4,5,6,7-tetrahydro-3H-imidazo[4,5-c]pyridine] | 1 to 50 µM | 1 to 50 µM |  | 
OC1c2c(Cl)cccc2CCC1N1CCc2nc(-c3ccccc3Cl)[nH]c2C1 (stereo not drawn) [Example 14, 8-chloro-2-(2-(2-chlorophenyl)-3,4,6,7-tetrahydro-5H-imidazo[4,5-c]pyridin-5-yl)-1,2,3,4-tetrahydronaphthalen-1-ol] | 1 to 50 µM | 1 to 50 µM |  | 
Cn1c(-c2ccccc2Cl)nc2c1CC(N1CCc3cccc(Cl)c3C1)CC2 (stereo not drawn) [Example 187, 8-chloro-2-(2-(2-chlorophenyl)-1-methyl-4,5,6,7-tetrahydro-1H-benzo[d]imidazol-6-yl)-1,2,3,4-tetrahydroisoquinoline] | < 0.1 µM | < 0.1 µM |  | 
Clc1ccccc1-c1nc2c([nH]1)CN(C1CCc3ccc(Br)cc3C1)CC2 (stereo not drawn) [Example 27, 5-(7-bromo-1,2,3,4-tetrahydronaphthalen-2-yl)-2-(2-chlorophenyl)-4,5,6,7-tetrahydro-3H-imidazo[4,5-c]pyridine] | 0.1 to 0.49 µM | < 0.1 µM |  | 
Clc1ccccc1-c1nc2c([nH]1)CC(N1Cc3cccc(Cl)c3C1)CC2 (stereo not drawn) [Example 186, 6-(4-chloroisoindolin-2-yl)-2-(2-chlorophenyl)-4,5,6,7-tetrahydro-1H-benzo[d]imidazole] | < 0.1 µM | < 0.1 µM |  | 
Clc1ccccc1-c1nc2c([nH]1)CN(C1CCc3cccc(Cl)c3C1)CC2 (stereo not drawn) [Example 1, 5-(8-chloro-1,2,3,4-tetrahydronaphthalen-2-yl)-2-(2-chlorophenyl)-4,5,6,7-tetrahydro-3H-imidazo[4,5-c]pyridine] | < 0.1 µM | 0.1 to 0.49 µM |  | 
Clc1ccccc1-c1nc2c([nH]1)CN(C1Cc3ccccc31)CC2 (stereo not drawn) [Example 43, 5-(bicyclo[4.2.0]octa-1(6),2,4-trien-7-yl)-2-(2-chlorophenyl)-4,5,6,7-tetrahydro-3H-imidazo[4,5-c]pyridine] | > 30 µM | 1 to 50 µM |  | 
Clc1ccc2c(c1)CC(N1CCc3nc(-c4ccccc4Cl)[nH]c3C1)CC2 (stereo not drawn) [Example 13, 5-(7-chloro-1,2,3,4-tetrahydronaphthalen-2-yl)-2-(2-chlorophenyl)-4,5,6,7-tetrahydro-3H-imidazo[4,5-c]pyridine] | 0.1 to 0.49 µM | 0.1 to 0.49 µM |  | 
COc1ccc2c(c1)CC(N1CCc3nc(-c4ccccc4F)[nH]c3C1)CC2 (stereo not drawn) [Example 8, 2-(2-fluorophenyl)-5-(7-methoxy-1,2,3,4-tetrahydronaphthalen-2-yl)-4,5,6,7-tetrahydro-3H-imidazo[4,5-c]pyridine] | 1 to 50 µM | 1 to 50 µM |  | 
CN1C2=C(CCN([C@H]3CCc4cccc(Cl)c4C3)C2)NC1c1ccccc1Cl (stereo partly drawn) [Example 18-S, 5-((S)-8-chloro-1,2,3,4-tetrahydronaphthalen-2-yl)-2-(2-chlorophenyl)-3-methyl-2,3,4,5,6,7-hexahydro-1H-imidazo[4,5-c]pyridine] | 0.1 to 0.49 µM | 0.1 to 0.49 µM |  | 

The next lines start with results.

IC50 [1] | IC50 [2] | Structure (SMILES) | IC50 (Shh Light2, 24 h, read-out: Gli1 IC50 firefly) | IC50 (Shh Light2, 24 h, read-out: Gli1 IC50 firefly:Renilla ratio)
0.1 to 0.49 µM | 0.1 to 0.49 µM | Clc1ccccc1-c1nc2c([nH]1)CN(C1CCc3ccc(C4CC4)cc3C1)CC2 (stereo not drawn) [Example 34, 2-(2-chlorophenyl)-5-(7-cyclopropyl-1,2,3,4-tetrahydronaphthalen-2-yl)-4,5,6,7-tetrahydro-3H-imidazo[4,5-c]pyridine] |  | 
1 to 50 µM | 0.5 to 0.99 µM | Clc1ccc2c(c1)CC(N1CCc3nc(-c4cc(Br)ccc4Cl)[nH]c3C1)CC2 (stereo not drawn) [Example 30, 2-(5-bromo-2-chlorophenyl)-5-(7-chloro-1,2,3,4-tetrahydronaphthalen-2-yl)-4,5,6,7-tetrahydro-3H-imidazo[4,5-c]pyridine] |  | 
1 to 50 µM | 1 to 50 µM | Clc1ccccc1-c1nc2c([nH]1)CN(C1CCc3cccc(Cl)c31)CC2 (stereo not drawn) [Example 106, 5-(7-chloro-2,3-dihydro-1H-inden-1-yl)-2-(2-chlorophenyl)-4,5,6,7-tetrahydro-3H-imidazo[4,5-c]pyridine] |  | 
0.5 to 0.99 µM | 1 to 50 µM | Clc1cnccc1-c1nc2c([nH]1)CN(C1CCc3cccc(Cl)c3C1)CC2 (stereo not drawn) [Example 17, 5-(8-chloro-1,2,3,4-tetrahydronaphthalen-2-yl)-2-(3-chloropyridin-4-yl)-4,5,6,7-tetrahydro-3H-imidazo[4,5-c]pyridine] |  | 
1 to 50 µM | 0.5 to 0.99 µM | Clc1ccccc1-c1nc2c([nH]1)CN(C1CCc3cc(C4CC4)ccc3C1)CC2 (stereo not drawn) [Example 31, 2-(2-chlorophenyl)-5-(6-cyclopropyl-1,2,3,4-tetrahydronaphthalen-2-yl)-4,5,6,7-tetrahydro-3H-imidazo[4,5-c]pyridine] |  | 
1 to 50 µM | 0.5 to 0.99 µM | Clc1ccccc1-c1nc2c([nH]1)CN(C1CCc3cccc(C4CC4)c3C1)CC2 (stereo not drawn) [Example 36, 2-(2-chlorophenyl)-5-(8-cyclopropyl-1,2,3,4-tetrahydronaphthalen-2-yl)-4,5,6,7-tetrahydro-3H-imidazo[4,5-c]pyridine] |  | 
0.1 to 0.49 µM | 0.1 to 0.49 µM | Clc1ccc2c(c1)CC(N1CCc3nc(-c4ccccc4Cl)[nH]c3C1)C2 (stereo not drawn) [Example 19, 5-(5-chloro-2,3-dihydro-1H-inden-2-yl)-2-(2-chlorophenyl)-4,5,6,7-tetrahydro-3H-imidazo[4,5-c]pyridine] |  | 
1 to 50 µM | 1 to 50 µM | O[C@H]1c2cc(Cl)ccc2C[C@@H]1N1CCc2nc(-c3ccccc3Cl)[nH]c2C1 (relative stereo) [Example 99, trans-6-chloro-2-(2-(2-chlorophenyl)-3,4,6,7-tetrahydro-5H-imidazo[4,5-c]pyridin-5-yl)-2,3-dihydro-1H-inden-1-ol] |  | 
1 to 50 µM | 1 to 50 µM | Clc1ccccc1-c1nc2c([nH]1)CN(C1CCc3ccc(C#CC4CC4)cc3C1)CC2 (stereo not drawn) [Example 35, 2-(2-chlorophenyl)-5-(7-(cyclopropylethynyl)-1,2,3,4-tetrahydronaphthalen-2-yl)-4,5,6,7-tetrahydro-3H-imidazo[4,5-c]pyridine] |  | 
1 to 50 µM | 1 to 50 µM | Fc1ccccc1-c1nc2c([nH]1)CN(C1CCc3cc(Cl)ccc3C1)CC2 (stereo not drawn) [Example 70, 5-(6-chloro-1,2,3,4-tetrahydronaphthalen-2-yl)-2-(2-fluorophenyl)-4,5,6,7-tetrahydro-3H-imidazo[4,5-c]pyridine] |  | 
